Measurements reported in PubChem BioAssay AID256 (DTP/NCI, 2004).
Values joined by “and” are separate entries in the source; they are usually repeats but may differ in a detail not shown here. Identical values can stand only once. Toxic doses and inconclusive results are not listed.

System: CD2F1 mice, L1210 leukemia ip, survival T/C
Test: NCI In Vivo Anticancer Drug Screen. Data for tumor model L1210 Leukemia (intraperitoneal) in CD2F1 (CDF1) mice
Details: higher = longer survival
Outline: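 Activity against a transplanted murine tumor was judged by comparing the compound group with a vehicle group. The outcome in the treated animals was divided by that in the controls.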

[1] = endpoint: mean survival time, dose: 25.0 mg/kg/injection, schedule: Q01DX009 (ip), vehicle: saline with Tween-80
[2] = endpoint: mean survival time, dose: 50.0 mg/kg/injection, schedule: Q01DX009 (ip), vehicle: saline with Tween-80
[3] = endpoint: mean survival time, dose: 100.0 mg/kg/injection, schedule: Q01DX009 (ip), vehicle: saline with Tween-80
[4] = endpoint: mean survival time, dose: 100.0 mg/kg/injection, schedule: Q04DX003 (ip), vehicle: saline with Tween-80
[5] = endpoint: mean survival time, dose: 200.0 mg/kg/injection, schedule: Q01DX009 (ip), vehicle: saline with Tween-80
[6] = endpoint: mean survival time, dose: 200.0 mg/kg/injection, schedule: Q04DX003 (ip), vehicle: saline with Tween-80
[7] = endpoint: mean survival time, dose: 400.0 mg/kg/injection, schedule: Q04DX003 (ip), vehicle: saline with Tween-80

`Cc1sc(Cc2ccccc2)nc1-c1ccc(N=Cc2ccc(N(CCOS(C)(=O)=O)CCOS(C)(=O)=O)cc2)cc1` was tested, and the T/C [1] was 107 % of control and the T/C [2] was 93 % of control.

`BrC1=C(Br)C(Br)(Br)C(Br)=C1Br` was tested, and the T/C (endpoint: mean survival time, dose: 1.25 mg/kg/injection, schedule: Q01DX009 (ip), vehicle: saline with Tween-80) was 106 % of control, the T/C (endpoint: mean survival time, dose: 2.5 mg/kg/injection, schedule: Q01DX009 (ip), vehicle: saline with Tween-80) was 101 % of control and the T/C (endpoint: mean survival time, dose: 5.0 mg/kg/injection, schedule: Q01DX009 (ip), vehicle: saline with Tween-80) was 101 % of control.

For `CC1CCC(C)C([N+](C)(C)C)C1` (configuration not stated), the T/C (endpoint: mean survival time, dose: 12.5 mg/kg/injection, schedule: Q01DX001 (ip), vehicle: saline) was 102 % of control, the T/C (endpoint: mean survival time, dose: 25.0 mg/kg/injection, schedule: Q01DX001 (ip), vehicle: saline) was 110 % of control and the T/C (endpoint: mean survival time, dose: 50.0 mg/kg/injection, schedule: Q01DX001 (ip), vehicle: saline) was 100 % of control.

For `CC(=O)Nc1ccccc1-c1ccccc1`, the T/C [3] was 96 % of control, the T/C [4] was 92 % of control and the T/C [5] was 104 % of control. The T/C [6] was 95 % of control, the T/C (endpoint: mean survival time, dose: 400.0 mg/kg/injection, schedule: Q01DX009 (ip), vehicle: saline with Tween-80) was 103 % of control and the T/C [7] was 94 % of control.

With `CCCCCCCCCCCCCCCCCCSc1ccc(Br)cc1` the T/C (endpoint: mean survival time, dose: 100.0 mg/kg/injection, schedule: Q01DX001 (ip), vehicle: saline with Tween-80) was 92 % of control and the T/C (endpoint: mean survival time, dose: 400.0 mg/kg/injection, schedule: Q01DX001 (ip), vehicle: saline with Tween-80) was 86 % of control.

`CCN(CC)CCOc1ccc(/C(=C(\Cl)c2ccccc2)c2ccccc2)cc1` was tested, and the T/C (endpoint: mean survival time, dose: 3.12 mg/kg/injection, schedule: Q04DX003 (ip), vehicle: saline with Tween-80) was 100 % of control, the T/C (endpoint: mean survival time, dose: 3.13 mg/kg/injection, schedule: Q01DX009 (ip), vehicle: saline with Tween-80) was 104 % of control and the T/C (endpoint: mean survival time, dose: 6.25 mg/kg/injection, schedule: Q01DX009 (ip), vehicle: saline with Tween-80) was 102 % of control. For the same compound, the T/C (endpoint: mean survival time, dose: 6.25 mg/kg/injection, schedule: Q04DX003 (ip), vehicle: saline with Tween-80) was 94 % of control, the T/C (endpoint: mean survival time, dose: 12.5 mg/kg/injection, schedule: Q01DX009 (ip), vehicle: saline with Tween-80) was 105 % of control and the T/C (endpoint: mean survival time, dose: 12.5 mg/kg/injection, schedule: Q04DX003 (ip), vehicle: saline with Tween-80) was 97 % of control. The T/C [1] was 107 % of control, the T/C (endpoint: mean survival time, dose: 25.0 mg/kg/injection, schedule: Q04DX003 (ip), vehicle: saline with Tween-80) was 97 % of control and the T/C [2] was 91 % of control. The T/C (endpoint: mean survival time, dose: 50.0 mg/kg/injection, schedule: Q04DX003 (ip), vehicle: saline with Tween-80) was 100 % of control and the T/C [4] was 105 % of control.

For `Nc1cc(Cl)c(Cl)cc1S(=O)(=O)NO`, the T/C [4] was 95 % of control and the T/C [7] was 89 % of control.

In the case of `C=C(C)C(=O)OCCN(C)C` (tested in a mixture with another compound), the T/C [3] is reported as 97 % of control, the T/C [4] is reported as 100 % of control and the T/C [5] is reported as 106 % of control. The T/C [6] was 122 % of control and the T/C [7] was 92 % of control.

`O=S(c1ccccc1)C1OC12CCCCC2` (configuration not stated) was tested, and the T/C [4] was 97 % of control, the T/C [6] was 98 % of control and the T/C [7] was 97 % of control.

With `Cc1c(C)c(C)c([N+](=O)[O-])c([N+](=O)[O-])c1C` the T/C (endpoint: mean survival time, dose: 50.0 mg/kg/injection, schedule: Q01DX005 (ip), vehicle: saline with Tween-80) was 101 % of control, the T/C (endpoint: mean survival time, dose: 100.0 mg/kg/injection, schedule: Q01DX005 (ip), vehicle: saline with Tween-80) was 101 % of control and the T/C (endpoint: mean survival time, dose: 200.0 mg/kg/injection, schedule: Q01DX005 (ip), vehicle: saline with Tween-80) was 101 % of control.

In the case of `COC(=O)C(C(=O)OC(C)C)C(=O)OC(C)C`, the T/C (endpoint: mean survival time, dose: 50.0 mg/kg/injection, schedule: Q01DX001 (ip), vehicle: Klucel (hydroxypropylcellulose) (HPC)) is reported as 105 % of control, the T/C (endpoint: mean survival time, dose: 100.0 mg/kg/injection, schedule: Q01DX001 (ip), vehicle: Klucel (hydroxypropylcellulose) (HPC)) is reported as 96 % of control and the T/C (endpoint: mean survival time, dose: 200.0 mg/kg/injection, schedule: Q01DX001 (ip), vehicle: Klucel (hydroxypropylcellulose) (HPC)) is reported as 99 % of control.

With `C[P+]1(c2ccccc2)CCC(N)=C(C#N)C1` (configuration not stated) the T/C (endpoint: mean survival time, dose: 25.0 mg/kg/injection, schedule: Q04DX002 (ip), vehicle: saline with Tween-80) was 97 % of control, the T/C (endpoint: mean survival time, dose: 50.0 mg/kg/injection, schedule: Q04DX002 (ip), vehicle: saline with Tween-80) was 101 % of control and the T/C (endpoint: mean survival time, dose: 100.0 mg/kg/injection, schedule: Q04DX002 (ip), vehicle: saline with Tween-80) was 101 % of control.

In the case of `Cc1ccc(NN=O)nc1`, the T/C (endpoint: median survival time, dose: 1.5 mg/kg/injection, schedule: Q01DX009 (ip), vehicle: water) is reported as 110 % of control, the T/C (endpoint: median survival time, dose: 1.56 mg/kg/injection, schedule: Q01DX009 (ip), vehicle: water) is reported as 114 % of control and the T/C (endpoint: median survival time, dose: 3.0 mg/kg/injection, schedule: Q01DX009 (ip), vehicle: water) is reported as 114 % of control. The T/C (endpoint: median survival time, dose: 3.12 mg/kg/injection, schedule: Q01DX009 (ip), vehicle: water) was 123 % of control, the T/C (endpoint: median survival time, dose: 12.0 mg/kg/injection, schedule: Q01DX009 (ip), vehicle: water) was 156 % of control and the T/C (endpoint: median survival time, dose: 24.0 mg/kg/injection, schedule: Q01DX009 (ip), vehicle: water) was 115 % of control and 106 % of control.
